From article PMC10649247, “Rapid Colloidal Gold Immunoassay for Pharmacokinetic Evaluation of Vancomycin in the Cerebrospinal Fluid and Plasma of Beagle Dogs” (Sensors (Basel, Switzerland), 2023)
Where a name gives a salt, the structure may show the parent alone.

Experiments:
[1] = test system: VAN antibodies (monoclonal antibodies derived from mouse ascites); assay: Colloidal gold competitive immunoassay test strip (calibration curve and cross-reactivity); type: binding; conditions: for CR (%) = [IC50 of VAN/IC50 of the tested compound] × 100%: cross-reactivity of the colloidal gold test strip; for IC50 (ng/mL), cross-reactivity test: compounds at 0, 0.1, 1, 10, 100, 1000 and 10,000 ng/mL
Method: Colloidal gold nanoparticles, integral for inducing a visible color change at the test line of the assay strips, were synthesized by boiling 100 mL of a 0.01% HAuCl4 aqueous solution, followed by the addition of 1% sodium citrate aqueous solution [46, 47, 48]. […] Subsequently, VAN antibodies were conjugated to these gold nanoparticles. The VAN antibodies used were monoclonal antibodies derived from mouse ascites with a molecular weight of 150 kD. They were purchased from Shenzhen KeJie Industrial Development Co., Ltd. (Shenzhen, China). The efficacy of this conjugation relied on a trifecta of forces: ionic attractions between the negatively charged gold particles and the positively charged proteins, hydrophobic interactions, and sulfur bonds, particularly from thiol groups that linked two regions of the Fc segment of the antibody to the gold surface.
A sequence of critical steps must be followed for fabricating colloidal gold immunochromatographic test strips. Initially, a substrate, typically comprising paper or a film, was precoated with antibodies specifically tailored for detecting the target molecule. Subsequently, colloidal gold nanoparticles were synthesized by reducing gold salts and coupled with antibodies. This coupling was facilitated by the combination of ionic, hydrophobic, and sulfur bond interactions. The resultant antibody-labeled colloidal gold solution was then applied to the designated test line area on the substrate. Then, a control line was established to validate the operational integrity of the strip. Following these applications, the strip underwent a drying process, was trimmed to manageable dimensions, and was hermetically sealed in protective packaging to mitigate the risk of environmental contamination.
The intensity of the color on the test line indicated the signal value. We quantified this signal using a smartphone camera in combination with the ImageJ software (Fiji ImageJ for Mac, 2.3.0 version). […] We used ImageJ to extract the gray values from lines drawn perpendicular to both the control and test lines. […] Therefore, the effective signal, represented as B, is determined by the absolute difference in gray value between the test line and its adjacent area.
The test line is coated with a competitive VAN–BSA antigen, and the control line is coated with […]. Upon application of the sample to the sample pad, the sample flows through the colloidal gold pad to interact with the gold-labeled antibodies. It then progresses through the test and control lines before being absorbed into the absorbent paper. The appearance of a visible line in the test area signifies a negative result for VAN (Figure 1(b1)). […] Regardless of the presence or absence of VAN, a red control line should always appear when the test is operating correctly. Otherwise, the results are invalid. Figure 1c depicts the four scenarios that may arise during testing.
Under optimized assay conditions, we used in-house-prepared VAN standard samples to validate the performance metrics of the test strips. The concentrations of the standard samples were 0, 1, 2, 4, 8, 16, 32, 64, 128, 256, 512, and 1024 ng/mL. For the analysis, we applied 4–5 drops of each sample onto the test strips and allowed them to air-dry for 10 min. We observed an inverse correlation between the VAN concentration and the test line signal intensity. We then proceeded to construct a calibration curve to elucidate the correlation between the optical signals (designated as B/B0) and the respective VAN concentrations. In this context, B represents the optical signals for each standard concentration of VAN, while B0 signifies the optical signal at a zero-concentration baseline. […]

[2] = Pharmacokinetic study of VAN in CSF of beagle dogs (LC-MS); type: in vivo; conditions: single intravenous dose 12 mg/kg, average of three dogs
Method: (§1) Animal Dosing and Sample Collection: The choice of using beagle dogs for the pharmacokinetic studies of VAN in CSF and plasma is driven by their physiological similarities to humans, which make them a suitable model for predicting human pharmacokinetics. Three male beagle dogs, each weighing approximately 11 kg and aged 10 months, were utilized for pharmacokinetic studies. Both the acquisition of the beagle dogs and the sample collection were conducted by Beijing Sinogenetic Biotechnology Co., Ltd. (Beijing, China). The animal protocols employed for this research were reviewed and approved by Beijing Sinogenetic Biotechnology Co., Ltd. (XNY-20230524001). The beagle dogs were anesthetized and subsequently administered a single intravenous dose of a pre-prepared 50 mg/mL VAN hydrochloride solution at a dosage level of 12 mg/kg, with the injection time lasting approximately 2–3 s. CSF and plasma samples were collected at predetermined time points: predose (0 min) and postdose at intervals of 5 min, 10 min, 30 min, 1 h, 2 h, 4 h, 8 h, and 24 h. […]
(§2) An HPLC–MS method was established to precisely quantify VAN levels in CSF and plasma samples collected from beagle dogs. […] The methodological rigor ensured a high degree of specificity and sensitivity in VAN quantification, effectively fulfilling the objectives of this study.

[3] = Pharmacokinetic study of VAN in plasma of beagle dogs (LC-MS); type: in vivo; conditions: single intravenous dose 12 mg/kg, average of three dogs
Method: as §1, §2

| Molecule | CR (%) = [IC50 of VAN/IC50 of the tested compound] × 100% [1] [%] | IC50 (ng/mL), cross-reactivity test ([1]; test strip) | LOD, concentration of VAN giving a 10% inhibition of the maximum absorbance ([1]; test strip calibration curve, read after 10 min, n = 3) [ng/mL] | inhibitory concentration 50% (IC50) from the calibration curve (B/B0 against VAN concentration) ([1]; test strip, standard samples 0-1024 ng/mL, read after 10 min, smartphone/ImageJ gray value, n = 3) [µg/mL] | time at which VAN concentration in CSF reaches its maximum [2] | peak concentration of VAN in plasma [3] [µg/mL] | concentration of VAN in plasma within ~4 h ([3]; ~4 h post dose) |
| --- | --- | --- | --- | --- | --- | --- | --- |
| NCC[C@H](O)C(=O)N[C@@H]1C[C@H](N)[C@@H](O[C@H]2O[C@H](CN)[C@@H](O)[C@H](O)[C@H]2O)[C@H](O)[C@H]1O[C@H]1O[C@H](CO)[C@@H](O)[C@H](N)[C@H]1O [Amikacin, amikacin] | <0.5 | >10^4 ng/mL |  |  |  |  |  |
| CN[C@H](CC(C)C)C(=O)N[C@H]1C(=O)N[C@@H](CC(N)=O)C(=O)N[C@H]2C(=O)N[C@H]3C(=O)N[C@H](C(=O)N[C@H](C(=O)O)c4cc(O)cc(O)c4-c4cc3ccc4O)[C@H](O[C@H]3C[C@](C)(N)[C@@H](O)[C@H](C)O3)c3ccc(c(Cl)c3)Oc3cc2cc(c3O[C@@H]2O[C@H](CO)[C@@H](O)[C@H](O)[C@H]2O[C@H]2C[C@](C)(NCc3ccc(-c4ccc(Cl)cc4)cc3)[C@@H](O)[C@H](C)O2)Oc2ccc(cc2Cl)[C@H]1O [Oritavancin, oritavancin] | <0.5 | >10^4 ng/mL |  |  |  |  |  |
| CCCCCCCCCCNCCN[C@@]1(C)C[C@H](O[C@H]2[C@H](Oc3c4cc5cc3Oc3ccc(cc3Cl)[C@@H](O)[C@@H](NC(=O)[C@@H](CC(C)C)NC)C(=O)N[C@@H](CC(N)=O)C(=O)N[C@H]5C(=O)N[C@H]3C(=O)N[C@H](C(=O)N[C@H](C(=O)O)c5cc(O)c(CNCP(=O)(O)O)c(O)c5-c5cc3ccc5O)[C@H](O)c3ccc(c(Cl)c3)O4)O[C@H](CO)[C@@H](O)[C@@H]2O)O[C@@H](C)[C@H]1O [Telavancin, telavancin] | <0.5 | >10^4 ng/mL |  |  |  |  |  |
| CN[C@H](CC(C)C)C(=O)N[C@H]1C(=O)N[C@@H](CC(N)=O)C(=O)N[C@H]2C(=O)N[C@H]3C(=O)N[C@H](C(=O)N[C@H](C(=O)O)c4cc(O)cc(O)c4-c4cc3ccc4O)[C@H](O)c3ccc(c(Cl)c3)Oc3cc2cc(c3O[C@@H]2O[C@H](CO)[C@@H](O)[C@H](O)[C@H]2O[C@H]2C[C@](C)(N)[C@H](O)[C@H](C)O2)Oc2ccc(cc2Cl)[C@H]1O [VAN, Vancomycin hydrochloride] | 100 |  | 10.3 | 0.0445 | ~ 2 h | 40 | below 1 µg/mL |

The next lines start with results.

| CR (%) = [IC50 of VAN/IC50 of the tested compound] × 100% [1] [%] | IC50 (ng/mL), cross-reactivity test ([1]; test strip) | Molecule | LOD, concentration of VAN giving a 10% inhibition of the maximum absorbance ([1]; test strip calibration curve, read after 10 min, n = 3) [ng/mL] | inhibitory concentration 50% (IC50) from the calibration curve (B/B0 against VAN concentration) ([1]; test strip, standard samples 0-1024 ng/mL, read after 10 min, smartphone/ImageJ gray value, n = 3) [µg/mL] | time at which VAN concentration in CSF reaches its maximum [2] | peak concentration of VAN in plasma [3] [µg/mL] | concentration of VAN in plasma within ~4 h ([3]; ~4 h post dose) |
| --- | --- | --- | --- | --- | --- | --- | --- |
| <0.5 | >10^4 ng/mL | CN[C@H]1C(=O)N[C@@H]2Cc3ccc(cc3)Oc3cc4cc(c3O[C@@H]3O[C@H](C(=O)O)[C@@H](O)[C@H](O)[C@H]3NC(=O)CCCCCCCCC(C)C)Oc3ccc(cc3Cl)[C@@H](O)[C@@H]3NC(=O)[C@H](NC(=O)[C@@H]4NC(=O)[C@@H](NC2=O)c2cc(cc(O)c2Cl)Oc2cc1ccc2O)c1ccc(O)c(c1)-c1c(O[C@H]2O[C@H](CO)[C@@H](O)[C@H](O)[C@@H]2O)cc(O)cc1[C@@H](C(=O)NCCCN(C)C)NC3=O [Dalbavancin, dalbavancin] |  |  |  |  |  |
| <0.5 | >10^4 ng/mL | C[C@@H](O)[C@H]1C(=O)N2C(C(=O)O)=C(S[C@@H]3CN[C@H](C(=O)N(C)C)C3)[C@H](C)[C@H]12 [Meropenem, meropenem] |  |  |  |  |  |
| <0.5 | >10^4 ng/mL | teicoplanin |  |  |  |  |  |
